Series [1] concerns the target T1, α-glucosidase (Sigma G0660) (Saccharomyces cerevisiae, UniProt P53341).
T1 construct: purchased Sigma G0660
Briefly: Kinetic study of α-glucosidase inhibition (Michaelis-Menten, pNPG). It counts as biochemical, yeast. Here is the method: The method’s principle based on the hydrolyzed reaction of 4-nitrophenyl-α-D-glucopiranoside with α-glucosidase enzyme into yellow 4- […]
The kinetic assay was performed according to the method using a series of […]
μL of 100 mM phosphate buffer (pH 6.8), 25 μL of α-glucosidase (0.4 U/mL, Sigma G0660) were pre-incubated for 10 min at 37 °C. DMSO was added to the respective control wells to a 0.64% final concentration. The reaction was initiated with the addition of 25 μL of p-nitrophenyl-[…] (pNPG, Sigma N1377) solution in a range of final concentrations. The amount of released p-nitrophenol from pNPG was immediately measured at 410 nm with Infinite M200 PRO (Tecan, Austria). Conversion of optical density to nM p-nitrophenol was performed with a standard curve. Reaction rates were determined from the linear parts of kinetic curves and fitted to the Michaelis-Menten equation. The assay was performed in triplicate wells and two independent […]
Ligands were prepared with MarvinSketch 18.8.0 (ChemAxon Ltd.). Ligands were hydrogenized and conformations with minimal potential energy were obtained using the MMFF94 force field. The homology model of S. cerevisiae α-glucosidase was obtained with SWISS-MODEL as described previously. Protein and ligand structures followed standard preparation procedure using AutoDocTools 1.5.6. We used AutoDock Vina 1.1.211 to perform all docking runs. The grid box with 70×80×80 Å dimensions was centered on the enzyme molecule to include the entire 3D space around the protein. The top-score binding poses were used in subsequent analysis. […]
(Dassault Systemes Biovia Corp.).
DPPH (0.1 mM) was diluted in methanol. 200 μL of this solution was added to 1.3 μL of various concentrations of compounds in DMSO (256.0, 64.0, 16.0, and 4.0 μg/mL). The mixture was performed by a 96-well plate at 25 °C in 30 min. […]

Series [2] deals with T2, yeast α-GLy (α-glucosidase, Sigma G0660) (Saccharomyces cerevisiae, UniProt P53341).
T2 construct: purchased Sigma G0660
T2 sequence (P53341 whole entry): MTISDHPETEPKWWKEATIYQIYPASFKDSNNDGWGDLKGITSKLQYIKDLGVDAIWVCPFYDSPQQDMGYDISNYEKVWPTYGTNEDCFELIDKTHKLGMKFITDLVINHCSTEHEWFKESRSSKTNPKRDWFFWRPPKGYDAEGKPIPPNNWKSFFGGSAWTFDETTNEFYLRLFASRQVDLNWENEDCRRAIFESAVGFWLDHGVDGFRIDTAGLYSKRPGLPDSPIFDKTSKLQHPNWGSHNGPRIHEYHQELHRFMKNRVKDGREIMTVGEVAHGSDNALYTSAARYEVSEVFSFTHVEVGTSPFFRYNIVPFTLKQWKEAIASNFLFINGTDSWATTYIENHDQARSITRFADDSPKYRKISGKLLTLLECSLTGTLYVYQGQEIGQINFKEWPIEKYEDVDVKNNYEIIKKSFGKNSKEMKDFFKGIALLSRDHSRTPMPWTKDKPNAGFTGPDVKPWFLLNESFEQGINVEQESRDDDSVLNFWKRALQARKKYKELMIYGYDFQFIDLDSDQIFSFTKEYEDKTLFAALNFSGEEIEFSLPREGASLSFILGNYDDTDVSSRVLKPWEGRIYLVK
Briefly: biochemical. Type of series: biochemical. To be noted: yeast α-glucosidase, 37°C, pH 6.8; read-out: IC50 ± SE, α-glucosidase inhibition.

A short description of the next series: MTT cytotoxicity assay. The conditions noted are these: human. How it is done: The cytotoxic activity of compounds was evaluated against four cancer cell lines KB, Hep-G2, Lu-1 and MCF-7, using colorimetric MTT assay. […]
MTT assay was used to determine the cytotoxic activity of compounds with human cancer cell lines acquired from the American Type Culture Collection (ATCC): epidermoid carcinoma (KB, ATCC number CCL-17), hepatocellular carcinoma (HepG2, ATCC number HB-8065), lung adenocarcinoma LU-1 (ATCC number HTB - 57TM), breast adenocarcinoma MCF-7 (ATCC number HTB - 22TM. Cells were cultured in medium DMEM supplemented with 10% Fetal bovine serum (FBS), 1% Penicillin and Streptomycin and 1% L-glutamine, under a humidified atmosphere of 5% CO2 at 37°C.
Compounds were dissolved in DMSO at 40 mg/mL and a series of dilutions for each compound was prepared to final concentrations of 256, 64, 16, 4 and 1 μg/mL. Cells were separated with trypsin and seeded in each well with 3 x10^4 cells per ml and were treated with sample different concentrations on 96-well plates. Untreated cells represented the controls. After 72h of treatment, an MTT solution (10 μl, 5 mg/mL) of phosphate buffer was added to each well for 4 h until intracellular purple formazan crystals are visible. Remove MTT and add DMSO solution (100 μL). The optical density of the solution was determined by Epoch™ Microplate Spectrophotometer at 540 nm. The inhibition ratio was calculated based on the optical densities from the three replicate […]
are evaluated to have cytotoxic activity.

≈ marks a conversion by molar mass, not a printed value.

T1 sequence (P53341 whole entry): as above

`C#CCOC(=O)C1(C)CCCC2(C)C1CCC13C=C(C(C)C)C(CC12)c1c(O)cc2c(C(=O)OC)c(C)[nH]c2c13` (stereo not drawn) [Compound 45, Methyl 7-propynyl 1-hydroxy-13-isopropyl-7,10a,2′-trimethyl-5,6,6b,7,8,9,10,10a,10b,11,12,13-dodecahydro-12,4b-ethenophenanthro [2,1-g]indole-7,1′-dicarboxylate]: the results for the Vmax in series [1] (Compound 45 at 25 μM), in series [1] (Compound 45 at 50 μM) and in series [1] (Compound 45 at 100 μM) were 2.277 nM/min, 2.221 nM/min and 2.249 nM/min, respectively. Moreover, in series [1] (Michaelis-Menten nonlinear regression), the “mechanism of α-glucosidase inhibition” value is reported as “competitive inhibitor”. Besides, the half-maximal inhibitory concentration (IC50) in series [2] worked out at 150 ± 8 nM. Further, the IC50 at 72 h was found to be 47.2 ± 1 µg/mL (≈ 86.8 µM) in “MTT cytotoxicity assay” (Hep-G2 hepatocellular carcinoma cells (ATCC HB-8065)), 42.2 ± 0.84 µg/mL (≈ 77.6 µM) in the series “MTT cytotoxicity assay” (KB epidermoid carcinoma cells (ATCC CCL-17)), 16 ± 0.36 µg/mL (≈ 29.4 µM) in the series “MTT cytotoxicity assay” (Lu-1 lung adenocarcinoma cells (ATCC HTB-57)) and 30.2 ± 0.8 µg/mL (≈ 55.6 µM) in the series “MTT cytotoxicity assay” (MCF-7 breast adenocarcinoma cells (ATCC HTB-22)).
